The values that follow come from patent US20230339977A1, “SUBSTITUTED HETEROARYL COMPOUND, AND COMPOSITION AND APPLICATION THEREOF” (SUNSHINE LAKE PHARMA CO., LTD., priority 2020, published 2023).

The test system of the assay is JAK1/TYK2. Put plainly: Cell level activity test of JAK1/TYK2 (IFN-α induced STAT3 phosphorylation in PBMC). Format: cell-based. The following applies: Homo sapiens; P-STAT3 by ELISA in PBMC, compound 1 h, IFN-α 5000 U/mL 15 min; read-out: IC50 nM (JAK 1 /TYK2). Here is the method: IFN-α can induce the phosphorylation of STAT3 downstream of JAK1/TYK2 in PBMC, and by measuring the level of STAT3 phosphorylation, the activity of the compound on JAK1/TYK2 at the cell level can be reflected.
Whole blood was collected from healthy subjects, anticoagulated with heparin sodium, and PBMC (human peripheral blood mononuclear cells) were extracted. PBMC were seeded in a 96-well culture plates at a density of 1*106/well. Positive wells and negative wells were added with the same volume of DMSO as the compound, and the final concentration of DMSO was 0.5%. The compounds were incubated with the cells at 37° C. for 1 h, and then stimulated by adding IFN-α at a final concentration of 5000 U/mL, an equal volume of medium was added to the negative wells, and incubated for 15 min. The cells were centrifuged to remove the supernatant, then lysed, and P-STAT3 was measured according to the instructions of the ELISA kit, the absorbance was read at 450 nm, and the IC50 value or inhibition rate was calculated.

Take `CC(=O)Nc1cc2c(-c3ccc4c(n3)C3(CCOC3)OCN4C)cn(C)c2cn1` (centres unmarked) [Example 9, N-(1-Methyl-3-(1′-Methyl-1′,2′,4,5-Tetrahydro-2Hspiro[Furan-3,4′-Pyrido[3,2-d][1,3]Oxazin]-6′-yl)-1H-Pyrrolo[2,3-c]Pyridin-5-yl)Acetamide]: the IC50 was found to be 114 nM.

For the compound `CC(=O)Nc1cc2c(-c3ccc4c(n3)C3(CCOC3)OCC4(F)F)cn(C)c2cn1` (centres unmarked) [Example 18, N-(3-(5′,5′-Difluoro-4,5,5′,6′-Tetrahydro-2H-Spiro[Furan-3,8′-Pyrano[3,4-b]P yridine]-2′-yl)-1-Methyl-1H-Pyrrolo[2,3-c]Pyridin-5-yl)Acetamide], the IC50 stood at 19.6 nM.

For `CC(=O)Nc1cc2c(-c3cc(OCCCN(C)C)c4c(n3)C3(CCOC3)OCC4)cn(C)c2cn1` (centres unmarked) [Example 29, N-(3-(4′-(3-(Dimethylamino)Propoxy)-4,5,5′,6′-Tetrahydro-2H-Spiro[Furan-3, 8′-Pyrano[3,4-b]Pyridin]-2′-yl)-1-Methyl-1H-Pyrrolo[2,3-c]Pyridin-5-yl)Acetamide], the IC50 was determined as 93.1 nM.

Turning to `CC(=O)Nc1cc2c(-c3cc(OCCN(C)C)c4c(n3)C3(CCOC3)OCC4)cn(C)c2cn1` (centres unmarked) [Example 19, N-(3-(4′-(2-(Dimethylamino)Ethoxy)-4,5,5′,6′-Tetrahydro-2H-Spiro[Furan-3,8′ -Pyrano[3,4-b]Pyridine]-2′-yl)-1-Methyl-1H-Pyrrolo[2,3-c]Pyridin-5-yl)Acetamide], the IC50 was 115 nM.

For `CCCCOc1cc(-c2cn(C)c3cnc(NC(C)=O)cc23)nc2c1CCOC21CCOC1` (centres unmarked) [Example 20, N-(3-(4′-Butoxy-4,5,5′,6′-Tetrahydro-2H-Spiro[Furan-3,8′-pyrAno[3,4-b]Pyridine]-2′-yl)-1-Methyl-1H-Pyrrolo[2,3-c]Pyridin-5-yl)Acetamide], the IC50 came out at 64.9 nM.

For `COc1cc(-c2cn(C)c3cnc(NC(C)=O)cc23)nc2c1CCOC21CCOC1` (centres unmarked) [Example 5, N-(3-(4′-Methoxy-4,5,5′,6′-Tetrahydro-2H-Spiro[Furan-3,8′-Pyrano[3,4-b]Pyridin]-2′-yl)-1-Methyl-1H-Pyrrolo[2,3-c]Pyridin-5-yl)Acetamide], the IC50 turned out to be 178 nM.

For `CC(=O)Nc1cc2c(-c3cc(N(C)C)c4c(n3)C3(CCOC3)OCC4)cn(C)c2cn1` (centres unmarked) [Example 24, N-(3-(4′-(Dimethylamino)-4,5,5′,6′-Tetrahydro-2H-Spiro[Furan-3,8′-Pyrano[3,4-b]Pyridin]-2′-yl)-1-Methyl-1H-Pyrrolo[2,3-c]Pyridin-5-yl)Acetamide], the IC50 was determined as 29.9 nM.

As for `COC(C)(C)CCOc1cc(-c2cn(C)c3cnc(NC(C)=O)cc23)nc2c1CCOC21CCOC1` (centres unmarked) [Example 27, N-(3-(4′-(3-Methoxy-3-Methylbutoxy)-4,5,5′,6′-Tetrahydro-2H-Spiro[Furan-3, 8′-Pyrano[3,4-b]Pyridin]-2′-yl)-1-Methyl-1H-Pyrrolo[2,3-c]Pyridin-5-yl)Acetamide], the IC50 turned out to be 13.1 nM.

With `CC(=O)Nc1cc2c(-c3cc(Cl)c4c(n3)C3(CCOC3)OCC4)cn(C)c2cn1` (centres unmarked) [Example 21, N-(3-(4′-Chloro-4,5,5′,6′-Tetrahydro-2H-Spiro[Furan-3,8′-Pyrano[3,4-b]Pyridine]-2′-yl)-1-Methyl-1H-Pyrrolo[2,3-c]Pyridin-5-yl)Acetamide], the IC50 turned out to be 36.9 nM.

On to `COCCCCOc1cc(-c2cn(C)c3cnc(NC(C)=O)cc23)nc2c1CCOC21CCOC1` (centres unmarked) [Example 28, N-(3-(4′-(4-Methoxybutoxy)-4,5,5′,6′-Tetrahydro-2H-Spiro[Furan-3,8′-Pyrano[3,4-b]Pyridin]-2′-yl)-1-Methyl-1H-Pyrrolo[2,3-c]Pyridin-5-yl)Acetamide], for which the IC50 is 12.9 nM.

Turning to `COCCOc1cc(-c2cn(C)c3cnc(NC(C)=O)cc23)nc2c1CCOC21CCOC1` (centres unmarked) [Example 15, N-(3-(4′-(2-Methoxyethoxy)-4,5,5′,6′-Tetrahydro-2H-Spiro[Furan-3,8′-Pyrano [3,4-b]Pyridin]-2′-yl)-1-Methyl-1H-Pyrrolo[2,3-c]Pyridin-5-yl)Acetamide], the IC50 came to 48.6 nM.
